Key:
[1] = 101 kPa, Liquid
[2] = xn = mol fraction of the nth substance listed; conditions: 101 kPa, Liquid

CC1OC(C)OC(C)O1 (configuration not stated) [2,4,6-trimethyl-1,3,5-trioxane]
[1]
Conditions | mass density [kg/m3] | viscosity [mPa·s]
298.15 K | 988.35 | 1.107
303.15 K | 982.64 | 1.001
308.15 K | 976.44 | 0.907

CC1OC(C)OC(C)O1 (configuration not stated) [2,4,6-trimethyl-1,3,5-trioxane] + CCCCO
[2]
Conditions | mass density, 298.15 K [kg/m3] | mass density, 303.15 K [kg/m3] | mass density, 308.15 K [kg/m3] | viscosity, 298.15 K [mPa·s] | viscosity, 303.15 K [mPa·s] | viscosity, 308.15 K [mPa·s]
x1 = 0.0289 | 814.71 | 810.8 | 806.91 | 2.46 | 2.164 | 1.917
x1 = 0.0582 | 823.46 | 819.5 | 815.51 | 2.311 | 2.037 | 1.809
x1 = 0.0804 | 829.94 | 825.93 | 821.87 | 2.204 | 1.948 | 1.732
x1 = 0.0999 | 835.53 | 831.47 | 827.35 | 2.116 | 1.873 | 1.668
x1 = 0.194 | 861.02 | 856.78 | 852.47 | 1.756 | 1.568 | 1.406
x1 = 0.3007 | 886.93 | 882.65 | 878.35 | 1.471 | 1.324 | 1.197
x1 = 0.4056 | 909.58 | 905 | 900.34 | 1.302 | 1.177 | 1.07
x1 = 0.5091 | 928.91 | 924.2 | 919.2 | 1.219 | 1.103 | 1.006
x1 = 0.6218 | 946.67 | 941.75 | 936.55 | 1.193 | 1.077 | 0.983
x1 = 0.6932 | 956.21 | 951.23 | 945.98 | 1.193 | 1.075 | 0.98
x1 = 0.8331 | 972.07 | 966.65 | 960.87 | 1.184 | 1.064 | 0.969
x1 = 0.9165 | 980.1 | 974.5 | 968.65 | 1.143 | 1.03 | 0.938
x1 = 1 | 988.35 | 982.64 | 976.44 | 1.107 | 1.001 | 0.907

CC1OC(C)OC(C)O1 (configuration not stated) [2,4,6-trimethyl-1,3,5-trioxane] + CCCO
[2]
Conditions | mass density, 298.15 K [kg/m3] | mass density, 303.15 K [kg/m3] | mass density, 308.15 K [kg/m3] | viscosity, 298.15 K [mPa·s] | viscosity, 303.15 K [mPa·s] | viscosity, 308.15 K [mPa·s]
x1 = 0.0286 | 809.7 | 804.77 | 800.59 | 1.861 | 1.653 | 1.474
x1 = 0.0484 | 816.43 | 811.5 | 807.28 | 1.807 | 1.606 | 1.433
x1 = 0.0743 | 824.91 | 820 | 815.72 | 1.74 | 1.548 | 1.383
x1 = 0.101 | 833.29 | 828.4 | 824.06 | 1.676 | 1.492 | 1.334
x1 = 0.197 | 860.73 | 855.87 | 851.32 | 1.481 | 1.322 | 1.187
x1 = 0.3124 | 888.86 | 883.99 | 879.22 | 1.312 | 1.175 | 1.061
x1 = 0.4052 | 908.29 | 903.38 | 898.44 | 1.219 | 1.096 | 0.994
x1 = 0.527 | 930.22 | 925.2 | 920.07 | 1.145 | 1.034 | 0.942
x1 = 0.5689 | 936.94 | 931.88 | 926.69 | 1.129 | 1.021 | 0.931
x1 = 0.7214 | 958.42 | 953.17 | 947.75 | 1.105 | 1.001 | 0.915
x1 = 0.8026 | 968.19 | 962.8 | 957.27 | 1.105 | 1.002 | 0.915
x1 = 0.8948 | 978.07 | 972.51 | 966.87 | 1.109 | 1.005 | 0.915
x1 = 1 | 988.35 | 982.64 | 976.44 | 1.107 | 1.001 | 0.907

Source: the NIST ThermoML archive (doi:10.1021/je049556i)
